Reference: patent US6399782B1, “Benzimidazole inhibitors of fructose 1,6-bisphosphatase” (Metabasis Therapeutics, Inc., priority 1997, dated 2002)
pEC50, pIC50: −log10 of the molar value.

Experiments:
[1] = tested on: streptozotocin-treated Sprague-Dawley rats; assay: Blood glucose lowering in the streptozotocin-treated rat; assay type: in vivo
Description: Diabetes was induced in male Sprague-Dawley rats (250-300 g) by intraperitoneal injection of 55 mg/kg streptozotocin (Sigma Chemical Co.). Six days later, 24 animals were selected with fed blood glucose values (8 am) between 350 and 600 mg/dL and divided into two statistically equivalent groups. Blood glucose was measured in blood obtained from a tall vein nick by means of a HemoCue Inc. (Mission Viejo, Calif.) glucose analyzer. […] Food was removed from the animals. Blood glucose was measured in each animal four hours after dosing, and a second dose of drug or saline was then administered. Four hours later, a final blood glucose measurement was made.

[2] = tested on: fasted Sprague Dawley rats; assay: Blood glucose lowering in fasted rats; assay type: in vivo, rat; conditions: 20 mg/kg intraperitoneally, 18 hours fasted Sprague Dawley rats, one hour post injection
Description: Sprague Dawley rats (250-300 g) were fasted for 18 hours and then dosed intraperitoneally with 20 mg/kg of compounds 12.53, 12.61, or 12.64. The vehicle used for drug administration was 50 mM sodium bicarbonate. Blood samples were obtained from the tail vein of conscious animals just prior to injection and one hour post injection. Blood glucose was measured using a HemoCue Inc. glucose analyzer according to the instructions of the manufacturer.

[3] = biological target: T1, Adenylate Kinase (rabbit muscle) (Oryctolagus cuniculus, UniProt P00569); assay: Adenylate kinase selectivity assay; assay type: biochemical; conditions: for pIC50: Table 3 Selectivity, read-out: Adenylate Kinase (inh.); for effect on adenylate kinase: result in words
T1 construct: Enzyme (rabbit muscle) was purchase from Sigma; purchased Sigma; host or cells: rabbit muscle
T1 sequence (P00569 1-194): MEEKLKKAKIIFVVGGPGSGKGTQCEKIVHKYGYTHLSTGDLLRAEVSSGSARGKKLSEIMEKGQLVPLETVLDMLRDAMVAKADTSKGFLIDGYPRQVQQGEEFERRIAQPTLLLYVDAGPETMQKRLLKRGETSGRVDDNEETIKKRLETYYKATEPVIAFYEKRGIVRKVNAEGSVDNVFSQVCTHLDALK
Description: (§1) To determine the selectivity of compounds towards FBPase, effects of FBPase inhibitors on 5 key AMP binding enzymes were measured using the assays described below:
Adenylate Kinase: Enzyme (rabbit muscle) was purchase from Sigma. Activity was measured at 37° C. in reaction mixtures (100 μL) containing 100 mM Hepes, pH 7.4, 45 mM MgCl2, 1 mM EGTA, 100 mM KCl, 2 mg/ml BSA, 1 mM AMP and 2 mM ATP. Reactions were started by addition of 4.4 ng enzyme and terminated after 5 minutes by addition of 17 μL perchloric acid. Precipitated protein was removed by centrifugation and the supernatant neutralized by addition of 33 μL 3 M KOH/3 M KH2CO3. The neutralized solution was clarified by centrifugation and filtration and analyzed for ADP content (enzyme activity) by HPLC using a YMC ODS AQ column (25×4.6 cm). A gradient was run from 0.1 M KH2PO4, pH 6, 8 mM tetrabutyl ammonium hydrogen sulfate to 75% acetonitrile. Absorbance was monitored at 254 nm.

human liver FBPase = biological target: T2, human liver FBPase (Homo sapiens, UniProt P09467); assay: Inhibition of human liver FBPase; assay type: biochemical; conditions: for pIC50: values in text, read-out: hlFBPase IC50
T2 construct: made in house; host or cells: E. coli BL21
T2 sequence (P09467 2-338 limits assumed): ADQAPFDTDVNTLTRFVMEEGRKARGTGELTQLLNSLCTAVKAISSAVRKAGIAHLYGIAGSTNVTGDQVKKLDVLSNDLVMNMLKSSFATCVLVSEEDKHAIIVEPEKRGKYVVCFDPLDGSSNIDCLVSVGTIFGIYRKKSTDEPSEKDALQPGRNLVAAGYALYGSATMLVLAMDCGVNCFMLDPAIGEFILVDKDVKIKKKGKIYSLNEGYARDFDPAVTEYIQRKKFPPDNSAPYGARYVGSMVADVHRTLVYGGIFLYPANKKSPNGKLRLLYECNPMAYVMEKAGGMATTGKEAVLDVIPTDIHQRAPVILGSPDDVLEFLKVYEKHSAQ
Description: Enzymatic activity was measured spectrophotometrically in reactions that coupled the formation of product (fructose 6-phosphate) to the reduction of dimethylthiazoldiphenyltetrazolium bromide (MTT) via NADP and phenazine methosulfate (PMS), using phosphoglucose isomerase and glucose 6-phosphate dehydrogenase as the coupling enzymes. Reaction mixtures (200 μl) were made up in 96-well microtitre plates, and consisted of 50 mM Tris-HCl, pH 7.4, 100 mM KCl, 5 mM EGTA, 2 mM MgCl2, 0.2 mM NADP, 1 mg/ml BSA, 1 mM MTT, 0.6 mM PMS, 1 unit/mL phosphoglucose isomerase, 2 units/mL glucose 6-phosphate dehydrogenase, and 0.150 mM substrate (fructose 1,6-bisphosphate). Inhibitor concentrations were varied from 0.01 μM to 10 μM. Reactions were started by the addition of 0.002 units of pure hlFBPase and were monitored for 7 minutes at 590 nm in a Molecular Devices Plate Reader (37° C.).

hlFBPase = biological target: T3, hlFBPase (Homo sapiens, UniProt P09467); assay: AMP site binding (displacement of radiolabeled AMP)
T3 construct: made in house; host or cells: E. coli BL21
T3 sequence (P09467 2-338 limits assumed): T2 sequence (P09467 2-338 limits assumed)
Description: To determine whether compounds bind to the allosteric AMP binding site of hlFBPase, the enzyme was incubated with radiolabeled AMP in the presence of a range of test compound concentrations. The reaction mixtures consisted of […] ^3H-AMP (54 mCi/mmol) and […] test compound in 25 mM Tris-HCl, pH 7.4, 100 mM KCl and 1 mM MgCl2. 1.45 mg of homogeneous FBPase (±1 nmole) was added last. After a 1 minute incubation, AMP bound to FBPase was separated from unbound AMP by means of a centrifugal ultrafiltration unit (“Ultrafree-MC”, Millipore) used according to the instructions of the manufacturer. The radioactivity in aliquots (100 μL) of the upper compartment of the unit (the retentate, which contrains enzyme and label) and the lower compartment (the filtrate, which contains unbound label) were quantified using a Beckman liquid scintillation counter. The amount of AMP bound to the enzyme was estimated by comparing the counts in the filtrate (the unbound label) to the total counts in the retentate.

[4] = biological target: T4, Phosphofructokinase (rabbit liver) (Oryctolagus cuniculus, UniProt Z9KA34MY27); assay: Phosphofructokinase selectivity assay; assay type: biochemical; conditions: result in words
T4 construct: Phosphofructokinase: Enzyme (rabbit liver) was purchased from Sigma
Description: as §1
Phosphofructokinase: Enzyme (rabbit liver) was purchased from Sigma. Activity was measured at 30° C. in reactions in which the formation of fructose 1,6-bisphosphate was coupled to the oxidation of NADH via the action of aldolase, triosephosphate isomerase, and α-glycerophosphate dehydrogenase. Reaction mixtures (200 μL) were made up in 96-well microtitre plates and were read at 340 nm in a Molecular Devices Microplate Reader. The mixtures consisted of 200 mM Tris-HCl pH 7.0, 2 mM DTT, 2 mM MgCl2, 0.2 mM NADH, 0.2 mM ATP, 0.5 mM Fructose 6-phosphate, 1 unit aldolase/ml, 3 units/ml triosephosphate isomerase, and 4 units/mL α-glycerophosphate dehydrogenase. Test compound concentrations ranged from 1 to 500 μM. Reactions were started by the addition of 0.0025 units of phosphofructokinase and were monitored for 15 minutes.

T4 sequence (Z9KA34MY27 1-780): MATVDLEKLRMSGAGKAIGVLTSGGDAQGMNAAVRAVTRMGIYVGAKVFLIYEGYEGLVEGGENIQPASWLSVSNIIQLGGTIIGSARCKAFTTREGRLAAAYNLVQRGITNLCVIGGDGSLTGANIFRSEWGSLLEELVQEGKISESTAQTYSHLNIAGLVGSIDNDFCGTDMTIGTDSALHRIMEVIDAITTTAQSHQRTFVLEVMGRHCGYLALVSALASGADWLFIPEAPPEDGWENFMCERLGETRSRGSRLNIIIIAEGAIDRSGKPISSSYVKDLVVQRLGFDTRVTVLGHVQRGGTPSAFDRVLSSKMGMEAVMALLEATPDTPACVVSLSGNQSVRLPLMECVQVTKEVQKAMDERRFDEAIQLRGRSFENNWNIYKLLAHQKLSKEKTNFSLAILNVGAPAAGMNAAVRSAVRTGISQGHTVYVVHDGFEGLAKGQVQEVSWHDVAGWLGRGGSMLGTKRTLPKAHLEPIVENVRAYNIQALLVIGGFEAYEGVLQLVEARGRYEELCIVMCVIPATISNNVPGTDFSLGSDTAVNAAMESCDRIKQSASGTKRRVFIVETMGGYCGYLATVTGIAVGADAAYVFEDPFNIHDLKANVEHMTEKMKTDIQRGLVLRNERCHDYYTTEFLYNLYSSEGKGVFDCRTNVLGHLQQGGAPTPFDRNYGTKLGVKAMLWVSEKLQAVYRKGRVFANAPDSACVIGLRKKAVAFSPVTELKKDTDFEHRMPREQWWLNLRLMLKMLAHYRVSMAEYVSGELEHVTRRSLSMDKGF

CCc1cc(F)c(N)c2nc(-c3ccc(P(=O)(O)O)o3)n(CC(C)C)c12 [Compound 12.64]
Blood glucose, mg/dl T = 8h ([1]; 100 mg/kg intraperitoneally at 0 and 4 h, food removed, 8 hours after the initial dose): 271 ± 29 mg/dL
Blood glucose, mg/dl T = 0h ([1]; before dosing, streptozotocin-treated rats): 488 ± 16 mg/dL
blood glucose lowering [2]: 64.6±24%

CCn1c(-c2ccc(P(=O)(O)O)o2)nc2c(N)cccc21 [Compound 12.1, 4-Amino-1-ethyl-2-[2-(5-phosphono)furanyl]benzimidazole]
pIC50 [3]: < 3.30
effect on adenylate kinase [3]: essentially inactive
pIC50 (human liver FBPase): 5.70
pEC50 (hlFBPase; displacement of 3H-AMP from hlFBPase, read-out: ED50 for AMP displacement): 4.30
displacement of AMP from human liver FBPase (FIG. 3) (hlFBPase; result in words): displaced AMP from human liver FBPase in a dose dependent manner
effect on phosphofructokinase [4]: essentially inactive

Nc1c(F)ccc2c1nc(-c1ccc(P(=O)(O)O)o1)n2CC1CC1 [Compound 12.61, 4-Amino-5-fluoro-1-cyclopropylmethyl-2-(2-phosphono-5-furanyl)benzimidazole]
pIC50 [3]: < 3.30
effect on adenylate kinase [3]: essentially without effect
inhibition of human liver FBPase activity (FIG. 2) (human liver FBPase; result in words): inhibit human liver FBPase activity in vitro in a dose dependent manner
pIC50 (human liver FBPase): 7.26
effect on phosphofructokinase [4]: essentially without effect
blood glucose lowering [2]: 48±15%
